Tests used:
[1] = tested on: Botrytis cinerea; assay: In vivo preventive test on Botrytis cinerea (grey mould); conditions: dose of 500 ppm; preventive spray on gherkin plants; grading 4 to 5 days after contamination vs control plants
Protocol: Gherkin plants (“Vert petit de Paris” variety), sown in starter cups on a 50/50 peat soil-pozzolana substrate and grown at 24° C., are treated at the Z11 cotyledon stage by spraying with the active ingredient prepared as described above. Plants, used as controls, are treated with the mixture of acetone/tween/DMSO/water not containing the active material. After 24 hours, the plants are contaminated by spraying the cotyledons with an aqueous suspension of cryopreserved Botrytis cinerea spores (50 000 spores per ml). The spores are suspended in a nutrient solution composed of 10 g/L of PDB, 50 g/L of D-Fructose, 2 g/L of NH4NO3 and 1 g/L of KH2PO4. The contaminated gherkin plants are incubated at 17° C. and at 90% relative humidity. Grading (% of efficacy) is carried out 4 to 5 days after the contamination, in comparison with the control plants.

[2] = Measurement of log P values by HPLC on reversed phase columns (EEC directive 79/831 Annex V.A8); assay type: physicochemical; conditions: for logP: method [a]: LC-MS at pH 2.7, 0.1% formic acid in water / acetonitrile, linear gradient 10% to 95% acetonitrile, Table 1 active ingredients; for chromatographic logP: pH 2.7
[3] = tested on: Puccinia recondita; assay: In vivo preventive test on Puccinia recondita (brown rust on wheat); conditions: dose of 500 ppm; preventive spray on wheat plants; grading 12 days after contamination vs control plants
Protocol: Wheat plants (“Scipion” variety), sown in starter cups on a 50/50 peat soil-pozzolana substrate and grown at 22° C., are treated at the 1-leaf stage (10 cm height) by spraying with the active ingredient prepared as described above. Plants, used as controls, are treated with the mixture of acetone/tween/DMSO/water not containing the active material. After 24 hours, the plants are contaminated by spraying the leaves with an aqueous suspension of Puccinia recondita spores (100 000 spores per ml). […] The contaminated wheat plants are incubated for 24 hours at 20° C. and at 100% relative humidity, and then for 10 days at 20° C. and at 70-80% relative humidity. Grading (% of efficacy) is carried out 12 days after the contamination, in comparison with the control plants.

[4] = tested on: Pyrenophora teres; assay: In vivo preventive test on Pyrenophora teres (net blotch on barley); conditions: dose of 500 ppm; preventive spray on barley plants; grading 14 days after contamination vs control plants
Protocol: Barley plants (“Plaisant” variety), sown in starter cups on a 50/50 peat soil-pozzolana substrate and grown at 22° C., are treated at the 1-leaf stage (10 cm height) by spraying with the active ingredient prepared as described above. Plants, used as controls, are treated with the mixture of acetone/tween/DMSO/water not containing the active material. After 24 hours, the plants are contaminated by spraying the leaves with an aqueous suspension of Pyrenophora teres spores (12 000 spores per ml). The spores are collected from a 12-day-old culture. The contaminated barley plants are incubated for 48 hours at 20° C. and at 100% relative humidity, and then for 12 days at 20° C. at 70-80% relative humidity. Grading (% of efficacy) is carried out 14 days after the contamination, in comparison with the control plants.

[5] = tested on: Alternaria brassicae; assay: In vivo preventive test on Alternaria brassicae (leaf spot on radish); conditions: dose of 500 ppm; preventive spray on radish plants; grading 6 days after contamination vs control plants
Protocol: Radish plants (“Pernod Clair” variety), sown in starter cups on a 50/50 peat soil-pozzolana substrate and grown at 17° C., are treated at the cotyledon stage by spraying with the active ingredient prepared as described above. Plants, used as controls, are treated with the mixture of acetone/tween/DMSO/water not containing the active material. After 24 hours, the plants are contaminated by spraying the cotyledons with an aqueous suspension of Alternaria brassicae spores (50 000 spores per ml). The spores are collected from a 15-day-old culture. The contaminated radish plants are incubated at 20° C. and at 100% relative humidity. Grading (% of efficacy) is carried out 6 days after the contamination, in comparison with the control plants.

[6] = tested on: Septoria tritici; assay: In vivo preventive test on Septoria tritici (leaf spot on wheat); conditions: dose of 500 ppm; preventive spray on wheat plants; grading 24 days after contamination vs control plants
Protocol: Wheat plants (“Scipion” variety), sown in starter cups on a 50/50 peat soil-pozzolana substrate and grown at 22° C., are treated at the 1-leaf stage (10 cm height) by spraying with the active ingredient prepared as described above. Plants, used as controls, are treated with the mixture of acetone/tween/DMSO/water not containing the active material. After 24 hours, the plants are contaminated by spraying the leaves with an aqueous suspension of cryopreserved Septoria tritici spores (500 000 spores per ml). The contaminated wheat plants are incubated for 72 hours at 18° C. and at 100% relative humidity, and then for 21 days at 90% relative humidity. Grading (% of efficacy) is carried out 24 days after the contamination, in comparison with the control plants.

[7] = tested on: Sphaerotheca fuliginea; assay: In vivo preventive test on Sphaerotheca fuliginea (powdery mildew on cucurbits); conditions: dose of 500 ppm; preventive spray on gherkin plants; grading 12 days after contamination vs control plants
Protocol: Gherkin plants (“Vert petit de Paris” variety), sown in starter cups on a 50/50 peat soil-pozzolana substrate and grown at 24° C., are treated at the Z11 cotyledon stage by spraying with the active ingredient prepared as described above. Plants, used as controls, are treated with the mixture of acetone/tween/DMSO/water not containing the active material. After 24 hours, the plants are contaminated by spraying the cotyledons with an aqueous suspension of Sphaerotheca fuliginea spores (100 000 spores per ml). The spores are collected from infected plants. The contaminated gherkin plants are incubated at about 20° C. and at 70-80% relative humidity. Grading (% of efficacy) is carried out 12 days after the contamination, in comparison with the control plants.

[8] = tested on: Uromyces appendiculatus; assay: In vivo preventive test on Uromyces appendiculatus (bean rust); conditions: dose of 500 ppm; preventive spray on bean plants; grading 11 days after contamination vs control plants
Protocol: Bean plants (“Saxa” variety), sown in starter cups on a 50/50 peat soil-pozzolana substrate and grown at 24° C., are treated at the 2-leaf stage (9 cm height) by spraying with the active ingredient prepared as described above. Plants, used as controls, are treated with the mixture of acetone/tween/DMSO/water not containing the active material. After 24 hours, the plants are contaminated by spraying the leaves with an aqueous suspension of Uromyces appendiculatus spores (150 000 spores per ml). […] The contaminated bean plants are incubated for 24 hours at 20° C. and at 100% relative humidity, and then for 10 days at 20° C. and at 70-80% relative humidity. Grading (% of efficacy) is carried out 11 days after the contamination, in comparison with the control plants.

[9] = tested on: Pyricularia oryzae; assay type: in vivo; conditions: dose of 500 ppm; preventive spray on rice plants; grading 6 days after contamination vs control plants
[10] = tested on: Fusarium nivale (var. majus); assay: In vivo Fusarium nivale (var. majus)-test (wheat)/preventive; conditions: concentration of 500 ppm of active ingredient; preventive spray on wheat plants; evaluated 5 days after inoculation; 0% = untreated control, 100% = no disease
Protocol: • Solvent: 49 parts by weight of N,N-dimethylacetamide • Emulsifier: 1 part by weight of alkylaryl polyglycol ether To produce a suitable preparation of active compound, 1 part by weight of active compound or active compound combination is mixed with the stated amounts of solvent and emulsifier, and the concentrate is diluted with water to the desired concentration. To test for preventive activity, young plants are sprayed with the preparation of active compound or active compound combination at the stated rate of application. After the spray coating has been dried, the plants are slightly injured by using a sandblast and afterwards they are sprayed with a conidia suspension of Fusarium nivale (var. majus). The plants are placed in the greenhouse under a translucent incubation cabinet at a temperature of approximately 10° C. and a relative atmospheric humidity of approximately 100%.

[11] = tested on: Phakopsora pachyrhizi; assay: In vivo Phakopsora test (soybeans)/preventive; conditions: concentration of 10 ppm of active ingredient; preventive spray on soybean plants; evaluated 7 days after inoculation; 0% = untreated control, 100% = no disease
Protocol: To produce a suitable preparation of active compound, 1 part by weight of active compound is mixed with the stated amounts of solvent and emulsifier, and the concentrate is diluted with water to the desired concentration. To test for preventive activity, young plants are sprayed with the preparation of active compound at the stated rate of application. After the spray coating has dried on, the plants are inoculated with an aqueous spore suspension of the causal agent of soybean rust (Phakopsora pachyrhizi) and stay for 24 h without light in an incubation cabinet at approximately 24° C. and a relative atmospheric humidity of 95%. The plants remain in the incubation cabinet at approximately 24° C. and a relative atmospheric humidity of approximately 80% and a day/night interval of 12 h.

| SMILES | Eff. % [1] [%] | logP [2] | Eff. % [3] [%] | Eff. % [4] [%] | Eff. % [5] [%] | Eff. % [6] [%] | Eff. % [7] [%] | Eff. % [8] [%] | Eff. % [9] [%] | chromatographic logP [2] | Eff. % [10] [%] | Eff. % [11] [%] |
| --- | --- | --- | --- | --- | --- | --- | --- | --- | --- | --- | --- | --- |
| C=C1c2cccc(NC(=O)c3c(C(F)F)nn(C)c3F)c2CCC1(C)C [Example 6] | 97 | 3.87[a] | 89 | 80 | 97 | 75 | 70 | 97 |  |  |  |  |
| CC1c2cccc(NC(=O)c3c(C(F)F)nn(C)c3F)c2CCC1(C)C (racemic) [Example 12] |  | 4.11[a] | 100 | 81 |  |  | 100 | 100 | 71 |  |  |  |
| Cn1nc(C(F)F)c(C(=O)Nc2cccc3c2CCC(C)(C)C3)c1F [Example 22] | 99 | 3.79[a] | 94 | 70 | 80 | 83 | 100 | 100 |  |  |  |  |
| Cn1nc(C(F)F)c(C(=O)Nc2cccc3c2CCCC3(C)C)c1F [Example 1, 5-fluoro-3-(difluoromethyl)-N-(5,5-dimethyl-5,6,7,8-tetrahydronaphthalen-1-yl)-1-methyl-1H-pyrazole-4-carboxamide] |  |  | 100 |  | 93 | 88 |  | 100 |  | 3.67 | 92 |  |
| Cn1nc(C(F)F)c(C(=O)Nc2cccc3c2CCC(C)(C)C3)c1Cl [Example 25, 5-chloro-3-(difluoromethyl)-N-(6,6-dimethyl-5,6,7,8-tetrahydronaphthalen-1-yl)-1-methyl-1H-pyrazole-4-carboxamide] | 97 |  | 98 |  | 70 | 100 |  | 100 |  | 4.04 |  |  |
| Cn1nc(C(F)F)c(C(=O)Nc2cccc3c2CCCC3(C)C)c1Cl [Example 2] |  | 3.89[a] | 98 |  |  |  |  | 100 |  |  | 86 | 96 |
